Measurements reported in US5502065A, “Indole derivatives as 5-HT1 -like agonists” (Pfizer Inc., priority 1992, dated 1996).
Where two headings read alike, the source gives them in different places.

Tests used:
"5-HT1 -like" receptor [1] = molecular target: T1, "5-HT1 -like" receptor (Canis lupus familiaris, UniProt P79250); experiment: contraction of dog isolated saphenous vein strip ("5-HT1 -like" receptor agonist activity); details: for Emax: read-out: […] RELATIVE TO 5-HT RESPONSE, relative to 5-HT response, read-out: PERCENTAGE AGONISM RELATIVE TO 5-HT RESPONSE
T1 construct: dog isolated saphenous vein strip; from tissue; host or cells: dog isolated saphenous vein strip
Method: The in vitro evaluation of the "5-HT1 -like" receptor agonist activity of the compounds of the formula (I) is carried out by testing the extent to which they mimic sumatriptan in contracting the dog isolated saphenous vein strip (P. P. A. Humphrey et al., .Br. J. Pharmacol., 94, 1123 (1988)).
The in vitro evaluation of the "5-HT1 -like" receptor agonist activity of the compounds of the invention is carried out by testing the extent to which they mimic sumatriptan in contracting the isolated dog saphenous vein strip (P. P. A. Humphrey et al., Brit. J. Pharmacol., 1988, 94, 1123).
EC50 represents the concentration of compound which causes 50% of the maximum contraction effected by it.

carotid vascular bed = details: anaesthetized dog, cited from earlier work
"5-HT1 -like" receptor [2] = molecular target: T1, "5-HT1 -like" receptor; details: dog isolated saphenous vein strip; cited from earlier work
[3] = dog isolated saphenous vein strip

T1 sequence (P79250 whole entry): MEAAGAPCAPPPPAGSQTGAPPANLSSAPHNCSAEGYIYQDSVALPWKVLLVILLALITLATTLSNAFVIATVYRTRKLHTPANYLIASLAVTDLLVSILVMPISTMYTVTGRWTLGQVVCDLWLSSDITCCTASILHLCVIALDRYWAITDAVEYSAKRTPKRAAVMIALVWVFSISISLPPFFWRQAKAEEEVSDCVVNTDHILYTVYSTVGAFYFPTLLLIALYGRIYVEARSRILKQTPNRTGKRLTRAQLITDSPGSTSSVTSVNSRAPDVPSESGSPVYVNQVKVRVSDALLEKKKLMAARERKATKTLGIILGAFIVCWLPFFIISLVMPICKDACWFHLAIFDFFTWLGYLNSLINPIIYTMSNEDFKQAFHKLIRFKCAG

| Structure (SMILES) | EC50 ("5-HT1 -like" receptor [1]) [µM] | Emax ("5-HT1 -like" receptor [1]; [3]) [%] | also measured |
| --- | --- | --- | --- |
| CN1CCC[C@@H]1Cc1c[nH]c2ccc(-c3cccc(S(N)(=O)=O)c3)cc12 [Example 3] | 0.00378 | 85 |  |
| OCc1ccc(-c2ccc3[nH]cc(C[C@H]4CCCN4)c3c2)cc1 [Example 37, 5-(4-Hydroxymethylphenyl)-3-(pyrrolidin-2(R)-ylmethyl)-1H-indole] | 0.076 | 72 |  |
| CN(C)C(=O)CCN1CCC[C@@H]1Cc1c[nH]c2ccc(-c3cccc(C(=O)N(C)C)c3)cc12 [Example 46, 3-1-(2-N,N-dimethylcarbamoylethyl)pyrrolidin-2(R)-ylmethyl!5-(3-N,N-dimethylcarbamoylphenyl)-1H-indole] |  | 78 | EC50 ("5-HT1 -like" receptor [1]; dog isolated saphenous vein strip, concentration of compound which causes 50% of the maximum contraction effected by it, read-out: EC50): 0.16 µM |
| CN1CCC[C@@H]1Cc1c[nH]c2ccc(-c3cncc(C#N)c3)cc12 [Example 53] | 0.026 | 75 |  |
| c1ncc(-c2ccc3[nH]cc(C[C@H]4CCCN4CC4CC4)c3c2)cn1 [Example 60, 3-(1-Cyclopropylmethylpyrrolidin-2(R)-ylmethyl)-5-(5-pyrimidinyl)-1H-indole] | 0.0092 | 105 |  |
| CN1CCC[C@@H]1Cc1c[nH]c2ccc(-c3ccc(C(N)=O)s3)cc12 [Example 64, 5-(5-Carbamoyl-2-thienyl)-3-(1-methylpyrrolidin-2(R)-ylmethyl)-1H-indole] | 0.025 | 79 |  |
| CN1CCC[C@@H]1Cc1c[nH]c2ccc(-c3ccc(CO)o3)cc12 [Example 66, 5-(5-Hydroxymethyl-2-furyl)-3-(1-methylpyrrolidin-2(R)-ylmethyl)-1H -indole] | 0.019 | 80 |  |
| CNS(=O)(=O)Cc1ccc2[nH]cc(CCN(C)C)c2c1 [Sumatriptan] |  |  | carotid vascular resistance (carotid vascular bed): selective increase; carotid arterial blood flow (carotid vascular bed; consequent on increased carotid vascular resistance): decrease |
| CSc1ccc2c(c1)C(N1CCN(C)CC1)Cc1ccccc1S2 (centres unmarked) [methiothepin] |  |  | block of saphenous vein contraction (5-HT antagonism) ("5-HT1 -like" receptor [2]): can be blocked |
